Three compounds from publication PMC2566858 (Nucleic Acids Research, 2008) can be followed below.

For test [1], the target named is rGyr_hel (Thermotoga maritima, UniProt O51934, K106Q). Nature of the test: biochemical.
Another test deals with rGyr_fl (Thermotoga maritima, UniProt O51934, K106Q/Y851F). Description: biochemical.
The target in test [2] is T1, rGyr_hel (Thermotoga maritima, UniProt O51934).
T1 sequence (O51934 59-541): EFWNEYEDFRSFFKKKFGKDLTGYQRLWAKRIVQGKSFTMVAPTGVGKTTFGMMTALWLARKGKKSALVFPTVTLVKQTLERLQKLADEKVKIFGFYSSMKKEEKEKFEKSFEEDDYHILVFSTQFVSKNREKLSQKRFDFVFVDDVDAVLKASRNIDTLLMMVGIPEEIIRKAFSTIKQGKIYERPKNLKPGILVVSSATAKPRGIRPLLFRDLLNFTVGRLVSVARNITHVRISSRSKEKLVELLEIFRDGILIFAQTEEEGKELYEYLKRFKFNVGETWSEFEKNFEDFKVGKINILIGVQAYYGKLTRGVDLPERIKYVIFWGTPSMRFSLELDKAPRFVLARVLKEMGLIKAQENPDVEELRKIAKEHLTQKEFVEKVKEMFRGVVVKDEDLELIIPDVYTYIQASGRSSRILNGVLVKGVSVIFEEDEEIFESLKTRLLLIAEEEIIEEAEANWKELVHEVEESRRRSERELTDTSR
Description: fluorescence equilibrium titration. It counts as binding.

Sequence of rGyr_fl (O51934 whole entry K106Q/Y851F): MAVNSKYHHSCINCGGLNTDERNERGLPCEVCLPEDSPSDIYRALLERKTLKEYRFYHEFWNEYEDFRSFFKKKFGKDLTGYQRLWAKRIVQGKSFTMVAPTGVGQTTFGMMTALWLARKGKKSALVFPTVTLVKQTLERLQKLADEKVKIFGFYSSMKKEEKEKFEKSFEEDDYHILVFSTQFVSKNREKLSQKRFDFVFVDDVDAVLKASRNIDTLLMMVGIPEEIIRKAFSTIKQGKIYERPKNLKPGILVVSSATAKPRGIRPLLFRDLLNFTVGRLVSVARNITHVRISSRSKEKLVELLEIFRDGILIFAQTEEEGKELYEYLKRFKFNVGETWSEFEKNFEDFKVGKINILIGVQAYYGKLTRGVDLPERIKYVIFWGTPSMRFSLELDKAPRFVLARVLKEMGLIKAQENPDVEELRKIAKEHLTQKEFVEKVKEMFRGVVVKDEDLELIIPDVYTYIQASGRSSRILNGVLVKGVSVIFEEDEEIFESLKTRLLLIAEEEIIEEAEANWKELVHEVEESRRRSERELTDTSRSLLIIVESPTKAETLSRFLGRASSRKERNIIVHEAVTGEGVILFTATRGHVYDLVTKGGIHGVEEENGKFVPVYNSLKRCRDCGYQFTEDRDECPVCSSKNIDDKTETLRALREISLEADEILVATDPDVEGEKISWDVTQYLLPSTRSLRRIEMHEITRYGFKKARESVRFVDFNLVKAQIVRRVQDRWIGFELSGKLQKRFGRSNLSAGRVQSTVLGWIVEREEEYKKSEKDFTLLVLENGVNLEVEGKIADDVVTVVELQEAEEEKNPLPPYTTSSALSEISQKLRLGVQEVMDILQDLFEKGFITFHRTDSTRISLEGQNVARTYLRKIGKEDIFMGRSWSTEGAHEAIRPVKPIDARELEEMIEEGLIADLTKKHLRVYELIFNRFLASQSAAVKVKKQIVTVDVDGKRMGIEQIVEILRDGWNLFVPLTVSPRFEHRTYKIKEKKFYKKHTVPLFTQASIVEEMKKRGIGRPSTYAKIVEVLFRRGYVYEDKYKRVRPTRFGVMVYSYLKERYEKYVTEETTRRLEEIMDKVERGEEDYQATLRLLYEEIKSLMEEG
Sequence of rGyr_hel (Thermotoga maritima, UniProt O51934, K106Q) (O51934 59-541 K106Q): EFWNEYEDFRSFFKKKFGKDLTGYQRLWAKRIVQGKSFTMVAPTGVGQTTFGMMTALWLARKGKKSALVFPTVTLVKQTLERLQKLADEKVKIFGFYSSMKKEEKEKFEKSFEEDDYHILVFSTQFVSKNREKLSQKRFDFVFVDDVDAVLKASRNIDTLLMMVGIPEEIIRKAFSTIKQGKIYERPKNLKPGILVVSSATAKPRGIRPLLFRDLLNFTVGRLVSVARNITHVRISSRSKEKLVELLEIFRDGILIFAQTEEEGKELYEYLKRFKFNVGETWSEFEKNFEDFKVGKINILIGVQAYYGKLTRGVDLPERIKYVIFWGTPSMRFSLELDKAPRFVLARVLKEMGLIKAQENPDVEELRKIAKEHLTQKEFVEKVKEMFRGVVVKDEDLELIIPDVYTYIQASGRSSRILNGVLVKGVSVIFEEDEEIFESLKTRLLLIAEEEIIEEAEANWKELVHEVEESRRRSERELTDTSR

As a reminder, the Kd is the concentration at which binding is half-saturated. The low end stands for higher affinity, the high end for lower affinity. Regarding `Nc1ncnc2c1ncn2[C@@H]1O[C@H](COP(=O)(O)OP(=O)(O)O)[C@@H](O)[C@H]1O` [ADP], the dissociation constant (Kd) at rGyr_hel [1] turned out to be 150 ± 85 µM; at rGyr_fl, 36 ± 5 µM.
`Nc1ncnc2c1ncn2[C@@H]1O[C@H](COP(=O)(O)O)[C@@H](O)[C@H]1O` [AMP] displayed a dissociation constant (Kd) at rGyr_hel [2] of 1.6 ± 0.231 mM.
With `Nc1ncnc2c1ncn2[C@@H]1O[C@H](COP(=O)(O)OP(=O)(O)OP(=O)(O)O)[C@@H](O)[C@H]1O` [ATP], the dissociation constant Kd on rGyr_hel [1] was 570 ± 300 µM; on rGyr_fl, 98 ± 12 µM.
